In one assay the target is T1, D2R (Homo sapiens, UniProt P14416).
T1 construct: expressed in transfected cells; host or cells: Hek293 (D2R cotransfected with GRK2, MeN and ArC)
Put plainly: cell-based. The assay is classed as cell-based.

Assay [1] relates to Hek293 cells without cotransfection of any receptor. Briefly: MeNArC and EeNArC negative controls, Hek293 without cotransfection of any receptor. In kind it is cell-based, human. The following applies: 10 µM agonist.
The next assay addresses MOR (Homo sapiens, UniProt P35372). In kind it is cell-based.
The next assay has as its system MOR 11S/T-A. Put plainly: MeNArC β-arrestin2 recruitment assay, MOR 11S/T-A mutant, Hek293. In kind it is cell-based. A general note: Arrestin recruitment assays detect the binding of arrestin to an activated receptor.
In assay [2] the target is T2, AT1R (Homo sapiens, UniProt P30556).
T2 construct: signal peptide (N); expressed in transfected cells; host or cells: Hek293
T2 sequence (P30556 1-359): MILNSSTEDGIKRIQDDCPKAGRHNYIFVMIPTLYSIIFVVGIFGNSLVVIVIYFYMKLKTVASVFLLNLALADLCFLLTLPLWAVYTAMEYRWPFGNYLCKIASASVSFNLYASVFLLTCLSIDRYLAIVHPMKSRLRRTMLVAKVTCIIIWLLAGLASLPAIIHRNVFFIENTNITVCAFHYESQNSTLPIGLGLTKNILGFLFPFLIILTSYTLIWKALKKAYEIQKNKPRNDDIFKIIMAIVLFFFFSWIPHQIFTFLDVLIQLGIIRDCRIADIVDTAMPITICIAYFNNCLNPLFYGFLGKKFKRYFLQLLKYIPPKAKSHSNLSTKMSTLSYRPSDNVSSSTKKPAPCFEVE
Briefly: MeNArC β-arrestin membrane recruitment assay, unmodified AT1R, Hek293. The assay is classed as cell-based.

Assay [3] deals with T2, AT1R. Put plainly: EeNArC β-arrestin early endosome recruitment assay, unmodified AT1R, Hek293. In kind it is cell-based. The following applies: 450 mM sucrose, Ang II, early endosomes.
Another assay has as its target T3, FKBP / FRB (UniProt P42345+Q62658).
T3 construct: expressed in transfected cells; host or cells: Hek293
Briefly: rapamycin-induced dimerization of FKBP and FRB fused to the N- and C-terminal NanoLuc fragments. In kind it is cell-based. The following applies: 50 nM rapamycin; Hek293 cotransfected with both fragments.

Structures can show the parent of a compound that is named as a salt.

T1 sequence (P14416 1-414 isoform P14416-2): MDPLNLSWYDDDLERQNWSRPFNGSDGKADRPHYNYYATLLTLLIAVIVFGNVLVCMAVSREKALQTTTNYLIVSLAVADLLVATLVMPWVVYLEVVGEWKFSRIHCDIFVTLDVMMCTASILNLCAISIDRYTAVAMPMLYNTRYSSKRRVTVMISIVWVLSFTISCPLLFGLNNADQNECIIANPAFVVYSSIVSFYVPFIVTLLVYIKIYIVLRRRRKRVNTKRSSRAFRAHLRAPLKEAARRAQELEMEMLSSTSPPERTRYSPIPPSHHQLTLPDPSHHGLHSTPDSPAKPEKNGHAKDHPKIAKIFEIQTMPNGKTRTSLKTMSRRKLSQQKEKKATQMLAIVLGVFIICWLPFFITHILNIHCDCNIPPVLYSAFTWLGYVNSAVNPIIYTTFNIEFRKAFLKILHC
T3 sequence (Q62658 3-108): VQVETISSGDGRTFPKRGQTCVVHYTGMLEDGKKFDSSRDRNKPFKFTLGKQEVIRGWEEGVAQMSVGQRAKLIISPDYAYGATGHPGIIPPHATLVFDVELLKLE
T3 sequence (P42345 2012-2144): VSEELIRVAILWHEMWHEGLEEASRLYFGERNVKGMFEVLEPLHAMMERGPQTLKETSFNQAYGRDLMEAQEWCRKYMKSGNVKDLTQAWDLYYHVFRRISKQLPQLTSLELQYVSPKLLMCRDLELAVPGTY
Chain of MOR (P35372 whole entry): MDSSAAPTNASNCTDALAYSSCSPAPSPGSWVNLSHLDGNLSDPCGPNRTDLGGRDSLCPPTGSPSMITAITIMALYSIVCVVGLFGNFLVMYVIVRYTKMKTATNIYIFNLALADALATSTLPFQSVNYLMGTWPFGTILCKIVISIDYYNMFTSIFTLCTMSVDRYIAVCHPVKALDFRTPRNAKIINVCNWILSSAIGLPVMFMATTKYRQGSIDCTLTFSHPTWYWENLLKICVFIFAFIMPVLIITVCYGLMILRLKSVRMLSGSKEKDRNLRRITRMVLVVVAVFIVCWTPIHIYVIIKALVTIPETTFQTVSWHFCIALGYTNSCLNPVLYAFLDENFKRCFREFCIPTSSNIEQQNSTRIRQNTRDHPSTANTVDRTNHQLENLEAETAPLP
Chain of MOR (P32121 whole entry partner): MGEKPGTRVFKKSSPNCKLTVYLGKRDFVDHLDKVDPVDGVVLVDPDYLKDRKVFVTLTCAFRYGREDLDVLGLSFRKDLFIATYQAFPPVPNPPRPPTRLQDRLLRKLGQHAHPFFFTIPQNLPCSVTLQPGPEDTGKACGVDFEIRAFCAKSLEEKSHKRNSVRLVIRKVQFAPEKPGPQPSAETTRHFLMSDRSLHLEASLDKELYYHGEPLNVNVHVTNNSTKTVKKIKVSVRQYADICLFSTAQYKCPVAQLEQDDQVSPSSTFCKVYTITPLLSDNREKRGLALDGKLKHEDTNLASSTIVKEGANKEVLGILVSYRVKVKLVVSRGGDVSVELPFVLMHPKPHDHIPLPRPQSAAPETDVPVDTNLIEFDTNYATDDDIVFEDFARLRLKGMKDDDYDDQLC

`CCN1CCCC1CNC(=O)c1cc(S(N)(=O)=O)ccc1OC` (stereo not shown) [sulpiride]: the “effect of antagonist on agonist-induced luminescence” value on D2R is recorded as “strong decay in luminescence down to baseline”.

Consider `CC(C)C[C@H]1C(=O)N2CCC[C@H]2[C@]2(O)O[C@](NC(=O)[C@@H]3C=C4c5cccc6[nH]c(Br)c(c56)C[C@H]4N(C)C3)(C(C)C)C(=O)N12` [bromocriptine], for which, on D2R, the response was half-maximal at 66.1 nM (EC50) and the “efficacy compared with dopamine” value amounted to 46%. `NCCc1ccc(O)c(O)c1` [dopamine, Dopamine hydrochloride]: in assay [1], the “response in MeNArC and EeNArC assays without receptor” value was “no response was observed”. Turning to `CCN(CC)C(=O)N[C@H]1C[C@@H]2c3cccc4[nH]cc(c34)C[C@H]2N(C)C1` [terguride, Terguride], on D2R, a half-maximal effect (EC50) was put at 9.55 nM and the “efficacy compared with dopamine” value amounted to 24%. On to `C[C@@H](NC(=O)[C@@H](N)Cc1ccc(O)cc1)C(=O)NCC(=O)N(C)[C@@H](Cc1ccccc1)C(=O)NCCO` [DAMGO, [D-Ala^2, N-MePhe^4, Gly-ol]-enkephalin], for which the EC80 on MOR was found to be 60 nM. Further, the “response in MeNArC and EeNArC assays without receptor” value in assay [1] was “no response was observed”. The molecule further yielded a pEC50 ± SD in the assay on MOR 11S/T-A (MOR 11S/T-A, β-arrestin2) of 6.82 ± 0.19. The “efficacy for MOR 11S/T-A compared with WT MOR” value with MOR 11S/T-A (from fold changes) was 65%. Take `CCCc1nc(C(C)(C)O)c(C(=O)O)n1Cc1ccc(-c2ccccc2-c2nnn[nH]2)cc1` [olmesartan]: the “reversal of agonist-induced β-arrestin recruitment by antagonist added after agonist” value on AT1R [2] (0.1 μM Ang II pretreatment, absence or presence of sucrose) was “could not be reversed”.

As to `OC[C@H]1O[C@@](CO)(O[C@H]2O[C@H](CO)[C@@H](O)[C@H](O)[C@H]2O)[C@@H](O)[C@@H]1O` [sucrose], the “effect of sucrose on agonist response” value on AT1R [2] (450 mM sucrose, Ang II response, plasma membrane) is given as “no effect on agonist response”. Besides, the “effect of sucrose on agonist effect” value on AT1R [3] is reported as “dramatically blunted”. Take `CC[C@H](C)[C@H](NC(=O)[C@H](Cc1ccc(O)cc1)NC(=O)[C@@H](NC(=O)[C@H](CCCNC(=N)N)NC(=O)[C@@H](N)CC(=O)O)C(C)C)C(=O)N[C@@H](Cc1c[nH]cn1)C(=O)N1CCC[C@H]1C(=O)N[C@@H](Cc1ccccc1)C(=O)O` [Ang II, Angiotensin II]: in assay [1], the “response in MeNArC and EeNArC assays without receptor” value is “no response was observed”. For `CO[C@H]1C[C@@H]2CC[C@@H](C)[C@@](O)(O2)C(=O)C(=O)N2CCCC[C@H]2C(=O)O[C@H]([C@H](C)C[C@@H]2CC[C@@H](O)[C@H](OC)C2)CC(=O)[C@H](C)/C=C(\C)[C@@H](O)[C@@H](OC)C(=O)[C@H](C)C[C@H](C)/C=C/C=C/C=C/1C` [rapamycin], the “increase of basal luminescence signal by addition of rapamycin” value at FKBP / FRB is reported as approximately 30 fold. Turning to `CCCN1CCCC(c2cccc(O)c2)C1` (stereo not shown) [PPP, (3-hydroxyphenyl)-N-propylpiperidine], the “efficacy compared with dopamine” value at D2R is 10%.

A word on the EC50: it is the midpoint of the concentration-response curve. Read a high EC50 as a need for much substance. For orientation: EC80 means the concentration needed for an effect of 80%. Read a low EC80 as an effect from little substance.

These data come from publication PMC8027564, “A novel luminescence-based β-arrestin recruitment assay for unmodified receptors” (The Journal of Biological Chemistry, 2021).
